Laboratory results: publication PMC12272882, “Ancestral evolution of oxidase activity in a class of (S)-nicotine and (S)-6-hydroxynicotine-degrading flavoenzymes” (The Journal of Biological Chemistry, 2025)
Like-named read-outs stand apart in the source and are kept apart here.

Columns and labels:
Node D [1] = details: pH 7.5, 4 °C, no O2; binding to oxidized enzyme; biphasic
Target sequence in this assay (DOC12272882_5 1-447 M100V): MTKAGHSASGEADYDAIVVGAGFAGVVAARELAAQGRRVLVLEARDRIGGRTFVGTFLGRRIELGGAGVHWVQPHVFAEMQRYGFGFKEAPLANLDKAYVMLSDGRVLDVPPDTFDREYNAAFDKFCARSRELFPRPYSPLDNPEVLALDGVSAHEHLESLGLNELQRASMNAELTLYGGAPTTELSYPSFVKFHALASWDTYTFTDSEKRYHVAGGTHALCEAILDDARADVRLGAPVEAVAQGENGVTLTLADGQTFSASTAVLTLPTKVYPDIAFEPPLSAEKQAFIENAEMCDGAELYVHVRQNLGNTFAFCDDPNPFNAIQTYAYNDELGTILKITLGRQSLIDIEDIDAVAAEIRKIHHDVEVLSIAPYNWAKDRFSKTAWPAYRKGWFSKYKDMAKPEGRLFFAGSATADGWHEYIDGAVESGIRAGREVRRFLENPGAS

Node D [2] = details: pH 7.5, 4 °C, no O2; binding to oxidized enzyme; biphasic; remark: listed apart in the source
Target sequence in this assay (DOC12272882_5 1-447 A90V): as the sequence (DOC12272882_5 1-447 M100V) above, with A90V, V100M counted along it

Node A [3] = target: T1, Node A (synthetic construct, UniProt Z9LAG0LSP2); test: anaerobic stopped-flow flavin reduction at […] nm; type: biochemical; details: pH 7.5, 4 °C, no O2
T1 construct: ancestral reconstruction
T1 sequence (Z9LAG0LSP2 1-442): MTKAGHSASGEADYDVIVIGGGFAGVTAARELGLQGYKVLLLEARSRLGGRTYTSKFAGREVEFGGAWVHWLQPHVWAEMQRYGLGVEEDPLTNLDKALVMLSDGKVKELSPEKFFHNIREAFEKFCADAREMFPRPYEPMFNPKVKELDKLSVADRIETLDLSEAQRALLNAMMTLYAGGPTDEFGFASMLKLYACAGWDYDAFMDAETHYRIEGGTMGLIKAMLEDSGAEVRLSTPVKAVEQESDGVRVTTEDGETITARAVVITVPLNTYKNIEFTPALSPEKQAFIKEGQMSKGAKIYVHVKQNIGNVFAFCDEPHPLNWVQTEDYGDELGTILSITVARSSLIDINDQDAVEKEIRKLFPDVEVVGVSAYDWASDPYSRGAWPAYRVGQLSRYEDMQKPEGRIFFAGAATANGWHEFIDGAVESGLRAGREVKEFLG

Node D [4] = details: pH 7.5, 4 °C, no O2; binding to oxidized enzyme; biphasic; remark: listed apart in the source
Target sequence in this assay (DOC12272882_5 1-447 E300T): as the sequence (DOC12272882_5 1-447 M100V) above, with V100M, E300T counted along it

NctB = target: T2, NctB (Shinella sp. HZN7, UniProt A0A075BSX9); test: absorbance spectrum of purified enzyme; type: binding; details: as purified
T2 construct: synthetic gene in pET29b, C-terminal His tag, E. coli BL21(DE3); FAD holoenzyme
T2 sequence (A0A075BSX9 whole entry): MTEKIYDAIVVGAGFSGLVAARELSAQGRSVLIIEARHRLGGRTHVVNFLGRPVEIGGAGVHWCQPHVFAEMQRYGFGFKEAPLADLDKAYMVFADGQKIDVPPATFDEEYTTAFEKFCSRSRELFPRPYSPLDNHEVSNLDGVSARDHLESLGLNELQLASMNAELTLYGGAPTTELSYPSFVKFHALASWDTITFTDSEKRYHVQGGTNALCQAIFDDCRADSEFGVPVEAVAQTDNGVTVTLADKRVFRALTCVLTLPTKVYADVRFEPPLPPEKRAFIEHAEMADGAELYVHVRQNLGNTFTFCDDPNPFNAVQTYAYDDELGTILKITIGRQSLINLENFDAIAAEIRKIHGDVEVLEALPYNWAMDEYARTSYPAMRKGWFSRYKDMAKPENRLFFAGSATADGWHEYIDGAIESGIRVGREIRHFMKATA

Node B = target: T3, Node B (synthetic construct, UniProt Z9QPI4SOH8); test: absorbance spectrum of purified enzyme; type: binding; details: as purified
T3 construct: ancestral reconstruction

Node C = target: T4, Node C (synthetic construct, UniProt Z9TTH1JYZ3); test: absorbance spectrum of purified enzyme; type: binding; details: as purified
T4 construct: ancestral reconstruction; N-terminal MTKAGHSASGEA peptide added, C-terminal His tag, pET29b, E. coli BL21(DE3); 431 positions

Node A [5] = target: T1, Node A; test: absorbance spectrum of purified enzyme; type: binding; details: as purified
Node D [6] = target: T5, Node D (synthetic construct, UniProt Z9ZYW4GBP2); test: absorbance spectrum of purified enzyme; type: binding; details: as purified
T5 construct: ancestral reconstruction; N-terminal MTKAGHSASGEA peptide (from Node D's own predicted N-terminal region), C-terminal His tag, pET29b, E. coli BL21(DE3); 431 positions

CN1CCC[C@H]1c1ccc(O)nc1 [6OHN, (S)-6-hydroxynicotine]
Kd (Node D [1]): All three mutants were capable of reacting with 6OHN
Kd (Node D [2]): All three mutants were capable of reacting with 6OHN
anaerobic stopped-flow flavin reduction at 450 nm (Node A [3]): Node A reacted poorly with both nicotine and 6OHN
Kd (Node D [4]): All three mutants were capable of reacting with 6OHN

CN1CCC[C@H]1c1cccnc1 [(S)-nicotine]
anaerobic stopped-flow flavin reduction at 450 nm (Node A [3]): Node A reacted poorly with both nicotine and 6OHN

Cc1cc2nc3c(=O)[nH]c(=O)nc-3n(C[C@H](O)[C@H](O)[C@H](O)COP(=O)(O)OP(=O)(O)OC[C@H]3O[C@@H](n4cnc5c(N)ncnc54)[C@H](O)[C@@H]3O)c2cc1C [FAD, flavin adenine dinucleotide]
absorbance spectrum of purified enzyme (NctB): all of the ASR enzymes and NctB have typical spectra of oxidized FAD
absorbance spectrum of purified enzyme (Node B): All ASR constructs purified with FAD bound
absorbance spectrum of purified enzyme (Node C): All ASR constructs purified with FAD bound
absorbance spectrum of purified enzyme (Node A [5]): All ASR constructs purified with FAD bound
absorbance spectrum of purified enzyme (Node D [6]): All ASR constructs purified with FAD bound
